# Source: ChEMBL document CHEMBL2331159, “Radiolytic transformation of rotenone with potential anti-adipogenic activity” (Bioorg Med Chem Lett, 2013)
# Assays:
# 3T3-L1 [1] = test: Antiadipogenic activity against mouse 3T3L1 cells assessed as inhibition of lipid deposition at 2 uM by Oil Red O staining; type: functional
# 3T3-L1 [2] = test: Cytotoxicity against mouse 3T3L1 cells assessed as cell viability upto 2 uM by MTT assay; type: cell-based
# [3] = target: T1, Pancreatic triacylglycerol lipase (Sus scrofa, UniProt P00591); test: (§1) Inhibition of pig pancreatic lipase assessed as hydrolysis of p-nitrophenylbutyrate to p-nitrophenol
# T1 sequence (P00591 whole entry): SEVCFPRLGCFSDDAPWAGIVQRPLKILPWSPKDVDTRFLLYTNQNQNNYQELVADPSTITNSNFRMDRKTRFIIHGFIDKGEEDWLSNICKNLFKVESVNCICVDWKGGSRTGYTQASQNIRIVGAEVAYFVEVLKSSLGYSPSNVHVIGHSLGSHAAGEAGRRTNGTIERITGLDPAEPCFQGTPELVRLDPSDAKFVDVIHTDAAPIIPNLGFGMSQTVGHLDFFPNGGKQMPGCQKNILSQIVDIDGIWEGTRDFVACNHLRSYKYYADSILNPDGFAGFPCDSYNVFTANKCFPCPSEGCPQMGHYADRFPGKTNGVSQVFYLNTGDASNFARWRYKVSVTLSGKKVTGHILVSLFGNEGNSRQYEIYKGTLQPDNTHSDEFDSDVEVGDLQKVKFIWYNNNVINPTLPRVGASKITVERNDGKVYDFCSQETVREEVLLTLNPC
# 3T3-L1 [4] = test: Cytotoxicity against mouse 3T3L1 cells assessed as cell viability at 0.02 to 20 uM by MTT assay; type: cell-based; conditions: 3t3-l1, 20 µM
# [5] = target: T2, Pancreatic triacylglycerol lipase (Sus scrofa) (UniProt P00591); test: as §1
# T2 sequence (whole entry): T1 sequence (P00591 whole entry)
SMILES,inhibition at 2 µM (3T3-L1 [1]),Activity (3T3-L1 [2]),IC50 [3],Activity (3T3-L1 [4]),inhibition [5]
C=C(C)[C@H]1Cc2c(ccc3c2O[C@@H]2COc4cc(OC)c(OC)cc4[C@@H]2[C@]32C[C@H]3O[C@@]3(O)[C@H](O)O2)O1 [ROTENOISIN B],70%,Non-toxic,28.4 µM,–,–
C=C(C)[C@H]1Cc2c(ccc3c2O[C@@H]2COc4cc(OC)c(OC)cc4[C@@H]2C3=O)O1 (stereo in doubt; 1) [ROTENONE],–,–,> 500 µM,Toxic,–
C=C(C)[C@H]1Cc2c(ccc3c2O[C@@H]2COc4cc(OC)c(OC)cc4[C@@H]2[C@@]32CO2)O1 [ROTENOISIN A],70%,Non-toxic,6.3 µM,–,Dose-dependent effect
C=C(C)[C@H]1Cc2c(ccc3c2O[C@@H]2COc4cc(OC)c(OC)cc4[C@@H]2C3=O)O1 (stereo in doubt) [ROTENONE],–,–,79.1 µM,–,–
